From US12440706B2, “Conjugated chemical inducers of degradation and methods of use” (Genentech, Inc., priority 2018, dated 2025)

These molecules were tested against T1, ERα (Homo sapiens, UniProt P03372) (assay: Degradation of ERα by Ab-CIDEs (Example 3, FIGS. 1-3, Tables 2-4)). Conditions: ERα degradation by Ab-CIDE.
T1 construct: ERα degradation percent activity in MCF7 neo/HER2 cells
T1 sequence (P03372 1-595): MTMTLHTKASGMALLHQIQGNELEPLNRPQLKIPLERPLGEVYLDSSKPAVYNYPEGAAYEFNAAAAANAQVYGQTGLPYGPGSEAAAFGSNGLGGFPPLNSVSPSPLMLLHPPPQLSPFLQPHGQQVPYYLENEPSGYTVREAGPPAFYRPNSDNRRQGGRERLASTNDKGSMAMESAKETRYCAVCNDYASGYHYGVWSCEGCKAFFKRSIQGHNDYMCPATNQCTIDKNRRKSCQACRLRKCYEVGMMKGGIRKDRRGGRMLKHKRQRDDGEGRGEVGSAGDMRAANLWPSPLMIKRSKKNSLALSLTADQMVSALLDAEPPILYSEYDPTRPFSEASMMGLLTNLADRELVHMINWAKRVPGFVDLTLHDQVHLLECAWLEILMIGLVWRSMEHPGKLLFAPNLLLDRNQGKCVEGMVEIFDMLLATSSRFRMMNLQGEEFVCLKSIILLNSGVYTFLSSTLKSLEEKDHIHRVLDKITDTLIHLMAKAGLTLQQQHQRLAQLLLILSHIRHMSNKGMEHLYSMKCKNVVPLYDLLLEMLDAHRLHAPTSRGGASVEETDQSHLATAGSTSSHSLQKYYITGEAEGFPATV
Format: cell-based

Which DC50 does the source give for `CC/C(=C(\c1ccc(O)cc1)c1ccc(OCCN(C)C(=O)CCOCCOCCC(=O)N[C@H](C(=O)N2C[C@H](OC(=O)OCC(C)(C)SS(C)(=O)=O)C[C@H]2C(=O)NCc2ccc(-c3scnc3C)cc2)C(C)(C)C)cc1)c1ccccc1` [Thio Hu Anti- CD22 10F4v3 high DAR [LC:K149C HC:L174C Y373C]] here?
The DC50 was 304 nM.

And the Sinf?
The Sinf was −92%.

Which DC50 does the source give for `CC/C(=C(/c1ccc(OCCN(C)C(=O)CCOCCOCCC(=O)N[C@H](C(=O)N2C[C@H](OC(=O)OCC(C)(C)SS(C)(=O)=O)C[C@H]2C(=O)NCc2ccc(-c3scnc3C)cc2)C(C)(C)C)cc1)c1ccc(OP(=O)(O)O)cc1)c1ccccc1` [Thio Hu Anti- Her2 7C2 high DAR [LC:K149C HC:L174C HC:Y373C]] here?
The DC50 was 47.4 nM.

And the Sinf?
Its Sinf is −94%.

For `CC/C(=C(\c1ccc(O)cc1)c1ccc(OCCN(C)C(=O)CCOCCOCCC(=O)N[C@H](C(=O)N2C[C@H](OC(=O)OCC(C)(C)SS(C)(=O)=O)C[C@H]2C(=O)NCc2ccc(-c3scnc3C)cc2)C(C)(C)C)cc1)c1ccccc1` [Thio Hu Anti- Her2 7C2 high DAR [LC:K149C HC:L174C HC:Y373C]], which DC50 is on record?
Its DC50 is 27.9 nM.

What about the Sinf of the same molecule?
Its Sinf is −93%.

Which DC50 does the source give for `CC/C(=C(/c1ccc(OCCN(C)C(=O)CCOCCOCCC(=O)N[C@H](C(=O)N2C[C@H](OC(=O)OCC(C)(C)SS(C)(=O)=O)C[C@H]2C(=O)NCc2ccc(-c3scnc3C)cc2)C(C)(C)C)cc1)c1ccc(OP(=O)(O)O)cc1)c1ccccc1` [Thio Hu Anti- CD22 10F4v3 high DAR [LC:K149C HC:L174C HC:Y37] here?
Its DC50 is 1270 nM.

And the Sinf?
Its Sinf is −92%.

The molecules below were run on EOL-1 AML xenografts (assay: EOL-1 AML subcutaneous xenograft efficacy). Conditions: single IV dose 0.4 mg/kg.
Format: in vivo, mice
Method: Two human AML cell lines, EOL-1 (DSMZ; Braunschweig, Germany) and HL-60 (ATCC, Manassas, VA) were used to establish subcutaneous xenograft models for efficacy evaluation of the degrader-antibody conjugates. Tumor cells (5 million cells suspended in 0.1 mL of Hanks' Balanced Salt Solution supplemented with Matrigel) were inoculated to the flanks of female CB-17 Fox Chase SCID mice (Charles River Lab, Hollister, CA). When mean tumor size reached the desired volume (200-300 mm^3), animals were randomized into groups of n=5, each with similar tumor volume distributions, and each animal received an intraperitoneal dose of a mouse IgG2a anti-ragweed antibody in excess amount (30 mg/kg; to block Fcγ receptors frequently expressed on the surface of AML cells). Four hours later, vehicle or degrader-antibody conjugates were administered to the animals via single intravenous (IV) bolus injections through the tail vein. Tumors were measured in two dimensions (length and width) using calipers and the tumor volume was calculated using the formula: Tumor size (mm^3)=0.5×(length×width×width). The results were plotted as mean tumor volume+/−SEM of each group over time. Treatment groups were not blinded during tumor measurement.

For `Cc1ncsc1-c1ccc(CNC(=O)[C@@H]2C[C@@H](O)CN2C(=O)[C@@H](NC(=O)CCCCCCCCCCNC(=O)c2cc3c(cc2CS(C)(=O)=O)-c2cn(C)c(=O)c4[nH]cc(c24)CN3c2ncc(F)cc2F)C(C)(C)C)cc1` [unconjugated CIDE], which “efficacy in the EOL-1 model” value is on record?
Its value is “no efficacy”.
